Experimental data: the Kinase Knowledgebase extract (Sharma et al. 2016)

Each compound was assayed against EGFR (human) (UniProt P00533). Conditions: a431.
EGFR (human), sequence (P00533 whole entry, looked up): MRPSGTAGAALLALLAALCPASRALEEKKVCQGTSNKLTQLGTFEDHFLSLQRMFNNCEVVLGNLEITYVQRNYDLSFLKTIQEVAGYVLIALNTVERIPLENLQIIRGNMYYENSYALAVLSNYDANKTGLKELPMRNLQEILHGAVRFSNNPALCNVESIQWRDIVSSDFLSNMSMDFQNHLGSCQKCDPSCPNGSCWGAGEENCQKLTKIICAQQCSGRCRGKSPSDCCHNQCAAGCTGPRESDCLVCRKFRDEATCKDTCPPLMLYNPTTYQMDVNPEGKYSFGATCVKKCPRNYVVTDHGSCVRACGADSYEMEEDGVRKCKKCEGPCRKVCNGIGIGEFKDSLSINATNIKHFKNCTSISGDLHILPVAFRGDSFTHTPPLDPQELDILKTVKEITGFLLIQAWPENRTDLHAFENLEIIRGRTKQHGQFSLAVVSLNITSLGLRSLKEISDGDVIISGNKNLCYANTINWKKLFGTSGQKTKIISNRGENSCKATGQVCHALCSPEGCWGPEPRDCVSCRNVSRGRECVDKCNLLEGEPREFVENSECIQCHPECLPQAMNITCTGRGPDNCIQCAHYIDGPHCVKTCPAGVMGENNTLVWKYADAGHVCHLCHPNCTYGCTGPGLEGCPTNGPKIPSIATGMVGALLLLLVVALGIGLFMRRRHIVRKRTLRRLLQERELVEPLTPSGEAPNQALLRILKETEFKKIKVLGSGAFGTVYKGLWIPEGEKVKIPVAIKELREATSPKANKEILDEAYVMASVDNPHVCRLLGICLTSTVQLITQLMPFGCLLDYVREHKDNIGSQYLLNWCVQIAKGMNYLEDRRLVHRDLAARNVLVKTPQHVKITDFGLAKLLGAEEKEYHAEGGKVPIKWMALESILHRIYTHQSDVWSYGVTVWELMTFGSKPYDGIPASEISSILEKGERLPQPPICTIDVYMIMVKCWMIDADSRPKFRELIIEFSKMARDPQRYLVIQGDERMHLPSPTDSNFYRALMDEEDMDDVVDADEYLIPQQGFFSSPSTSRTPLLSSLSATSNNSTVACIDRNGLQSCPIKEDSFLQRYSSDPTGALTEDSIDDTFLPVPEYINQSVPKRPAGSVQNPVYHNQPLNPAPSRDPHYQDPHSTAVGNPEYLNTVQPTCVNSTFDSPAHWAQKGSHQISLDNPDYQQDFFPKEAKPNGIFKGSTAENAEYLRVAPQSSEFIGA

IC50 [µM]	SMILES
> 50	C/C(=C/c1coc2nc(N)nc(N)c12)c1cc(Cl)ccc1Cl
> 50	C/C(=C\c1coc2nc(N)nc(N)c12)c1cccc(Cl)c1
> 50	C/C(=C\c1coc2nc(N)nc(N)c12)c1cc(Cl)ccc1Cl
> 50	C/C(=C\c1coc2nc(N)nc(N)c12)c1ccc(Cl)cc1Cl
> 50	C/C(=C\c1coc2nc(N)nc(N)c12)c1ccc(Cl)c(Cl)c1Cl

More lines, now with the values behind:

SMILES	IC50 [µM]
COc1ccccc1/C(C)=C/c1coc2nc(N)nc(N)c12	> 50
COc1ccc(OC)c(/C(C)=C/c2coc3nc(N)nc(N)c23)c1	> 50
C/C(=C/c1coc2nc(N)nc(N)c12)c1ccc2ccccc2c1.C/C(=C\c1coc2nc(N)nc(N)c12)c1ccc2ccccc2c1	> 50
C/C(=C/c1coc2nc(N)nc(N)c12)c1ccc(Cl)cc1.C/C(=C\c1coc2nc(N)nc(N)c12)c1ccc(Cl)cc1	> 50
COc1cc(/C(C)=C/c2coc3nc(N)nc(N)c23)cc(OC)c1OC.COc1cc(/C(C)=C\c2coc3nc(N)nc(N)c23)cc(OC)c1OC	> 50
C/C(=C\c1coc2nc(N)nc(N)c12)c1ccc2c(c1)Cc1ccccc1-2	> 50
C/C(=C/c1coc2nc(N)nc(N)c12)c1ccc(-c2ccccc2)cc1.C/C(=C\c1coc2nc(N)nc(N)c12)c1ccc(-c2ccccc2)cc1	> 50
C/C(=C/c1coc2nc(N)nc(N)c12)c1ccc(Cl)c(Cl)c1.C/C(=C\c1coc2nc(N)nc(N)c12)c1ccc(Cl)c(Cl)c1	> 50
C/C(=C/c1coc2nc(N)nc(N)c12)c1ccc(Cl)c(Cl)c1Cl.C/C(=C\c1coc2nc(N)nc(N)c12)c1ccc(Cl)c(Cl)c1Cl	> 50
